The values that follow come from patent US12552783B2, “Modulators of proteolysis and associated methods of use” (Arvinas Operations, Inc., priority 2018, dated 2026).

The structures appear in SMILES notation. Where only a bound is given, the exact number is not on record here.

This assay concerns the target KRas (Homo sapiens, UniProt P01116, G12C). Briefly: KRas degradation in NCI-H2030 cells by Western blot, normalized to GAPDH (data of Table 14). In kind it is cell-based. Set-up: host or cells: NCI-H2030. The following applies: for Dmax: NCI-H2030. In a few lines: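 After overnight adherence and 24 h without FBS, compounds added at 0.3, 1 or 3 μM (0.1% DMSO) for 24 h (VHL-based) or 72 h (others). Western blot of RIPA lysates, KRas signal over GAPDH relative to DMSO; DC50 and DMax derived, or <25% scored visually.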

Turning to `C=CC(=O)N1CCN(c2nc(O[C@H](C)CN3CCC(OCCOCCOCCOc4ccc5c(c4)C(=O)N(C4CCC(=O)NC4=O)C5=O)CC3)nc3c2CCN(c2cc(O)cc4ccccc24)C3)CC1` (stereo partly drawn) [compound 418, 5-(2-(2-(2-((1-((R)-2-((4-(4-acryloylpiperazin-1-yl)-7-(3-hydroxynaphthalen-1-yl)-5,6,7,8-tetrahydropyrido[3,4-d]pyrimidin-2-yl)oxy)propyl)piperidin-4-yl)oxy)ethoxy)ethoxy)ethoxy)-2-(2,6-dioxopiperidin-3-yl)isoindoline-1,3-dione], the “Percent Degradation at Indicated Concentration (μM)” value (H2030 cells, 0.3 μM) is “C (Percent Degradation: C ≤ 35)”; the “Percent Degradation at Indicated Concentration (μM)” value (H2030 cells, 1 μM) is recorded as “C (Percent Degradation: C ≤ 35)”; the “Percent Degradation at Indicated Concentration (μM)” value (H2030 cells, 3 μM) was “C (Percent Degradation: C ≤ 35)”.
Turning to `CCC(=O)N1CCN(c2nc(NCCC(=O)N(C)CCOCCOCCNc3cccc4c3C(=O)N(C3CCC(=O)NC3=O)C4=O)nc3c(F)c(-c4cc(O)cc5ccccc45)c(Cl)cc23)CC1` (stereo not drawn) [compound 43, 3-((6-chloro-8-fluoro-7-(3-hydroxynaphthalen-1-yl)-4-(4-propionylpiperazin-1-yl)quinazolin-2-yl)amino)-N-(2-(2-(2-((2-(2,6-dioxopiperidin-3-yl)-1,3-dioxoisoindolin-4-yl)amino)ethoxy)ethoxy)ethyl)-N-methylpropanamide], the “Percent Degradation at Indicated Concentration (μM): 0.3” value (“Percent Degradation … 0.3” for short) (H2030 cells, 0.3 μM) is “C (C ≤ 35)”. For the setting “H2030 cells, 1 μM”, the “Percent Degradation at Indicated Concentration (μM): 1” value (“Percent Degradation … 1” below) is “C (C ≤ 35)”. Further, under “H2030 cells, 3 μM”, the “Percent Degradation at Indicated Concentration (μM): 3” value (“Percent Degradation … (μM): 3” for short) is recorded as “C (C ≤ 35)”. In addition, the Dmax (H2030 cells) was no more than 35%.
In turn, `Cc1ncsc1-c1ccc([C@H](C)NC(=O)[C@@H]2C[C@@H](O)CN2C(=O)[C@@H](NC(=O)COCCOCC/C=C/C(=O)N2CCN(c3ncnc4c(F)c(-c5cc(O)cc6ccccc56)c(Cl)cc34)CC2)C(C)(C)C)cc1` [compound 373, (2S,4R)-1-((2S)-2-(2-(2-(((E)-5-(4-(6-chloro-8-fluoro-7-(3-hydroxynaphthalen-1-yl)quinazolin-4-yl)piperazin-1-yl)-5-oxopent-3-en-1-yl)oxy)ethoxy)acetamido)-3,3-dimethylbutanoyl)-4-hydroxy-N-((S)-1-(4-(4-methylthiazol-5-yl)phenyl)ethyl)pyrrolidine-2-carboxamide] had a Dmax of no more than 35%. Also, the “Percent Degradation at Indicated Concentration (μM)” value (H2030, 0.3 μM) is given as “C (Percent Degradation: C ≤ 35)”. Besides, under “H2030, 1 μM”, the “Percent Degradation at Indicated Concentration (μM)” value is on record as “C (Percent Degradation: C ≤ 35)”. Also, the “Percent Degradation at Indicated Concentration (μM)” value (H2030, 3 μM) is recorded as “C (Percent Degradation: C ≤ 35)”.
For the molecule `CCC(=O)N1CCN(c2nc(NCCC(=O)N(C)CCOCCOCCOCCOCCOc3ccc4c(c3)CN(C3CCC(=O)NC3=O)C4=O)nc3c(F)c(-c4cc(O)cc5ccccc45)c(Cl)cc23)CC1` (stereo not drawn) [compound 54, 3-((6-chloro-8-fluoro-7-(3-hydroxynaphthalen-1-yl)-4-(4-propionylpiperazin-1-yl)quinazolin-2-yl)amino)-N-(14-((2-(2,6-dioxopiperidin-3-yl)-1-oxoisoindolin-5-yl)oxy)-3,6,9,12-tetraoxatetradecyl)-N-methylpropanamide], the “Percent Degradation … 0.3” value (H2030 cells, 0.3 μM) is reported as “C (C ≤ 35)”. The “Percent Degradation … 1” value (H2030 cells, 1 μM) is reported as “C (C ≤ 35)”. The “Percent Degradation … (μM): 3” value (H2030 cells, 3 μM) is “C (C ≤ 35)”. This molecule also yielded a Dmax (H2030 cells) of no more than 35%.
`Cc1ncsc1-c1ccc([C@H](C)NC(=O)[C@@H]2C[C@@H](O)CN2C(=O)[C@@H](NC(=O)COCC/C=C/C(=O)N2CCN(c3nc(NCCC(=O)N(C)C)nc4c(F)c(-c5cc(O)cc6ccccc56)c(Cl)cc34)CC2)C(C)(C)C)cc1` [compound 363, (2S,4R)-1-((2S)-2-(2-(((E)-5-(4-(6-chloro-2-((3-(dimethylamino)-3-oxopropyl)amino)-8-fluoro-7-(3-hydroxynaphthalen-1-yl)quinazolin-4-yl)piperazin-1-yl)-5-oxopent-3-en-1-yl)oxy)acetamido)-3,3-dimethylbutanoyl)-4-hydroxy-N-((S)-1-(4-(4-methylthiazol-5-yl)phenyl)ethyl)pyrrolidine-2-carboxamide]: the Dmax is no more than 35%. Moreover, the “Percent Degradation at Indicated Concentration (μM)” value (H2030, 0.3 μM) is on record as “C (Percent Degradation: C ≤ 35)”. Where the note is “H2030, 1 μM”, the “Percent Degradation at Indicated Concentration (μM)” value is reported as “C (Percent Degradation: C ≤ 35)”. In addition, the “Percent Degradation at Indicated Concentration (μM)” value (H2030, 3 μM) is on record as “C (Percent Degradation: C ≤ 35)”.
As to `CCC(=O)N1CCN(c2nc(NCCC(=O)N(C)CCOCCOCCOCCNc3cccc4c3C(=O)N(C3CCC(=O)NC3=O)C4=O)nc3c(F)c(-c4cc(O)cc5ccccc45)c(Cl)cc23)CC1` (stereo not drawn) [compound 44], the “Percent Degradation … 0.3” value (H2030 cells, 0.3 μM) is “C (C ≤ 35)”. Moreover, under “H2030 cells, 1 μM”, the “Percent Degradation … 1” value is listed as “C (C ≤ 35)”. Besides, the “Percent Degradation … (μM): 3” value (H2030 cells, 3 μM) is on record as “C (C ≤ 35)”. Besides, the Dmax (H2030 cells) is no more than 35%.
Molecule `C=CC(=O)N1CCN(c2nc(NCCC(=O)N(C)CCOCCOCCOCCOCCOc3ccc4c(c3)CN(C3CCC(=O)NC3=O)C4=O)nc3c(F)c(-c4c(O)cccc4F)c(Cl)cc23)CC1` [compound 95, 3-(((S)-4-(4-acryloylpiperazin-1-yl)-6-chloro-8-fluoro-7-(2-fluoro-6-hydroxyphenyl)quinazolin-2-yl)amino)-N-(14-((2-(2,6-dioxopiperidin-3-yl)-1-oxoisoindolin-5-yl)oxy)-3,6,9,12-tetraoxatetradecyl)-N-methylpropanamide] displayed a Dmax of no more than 35%. The “Percent Degradation at Indicated Concentration (μM)” value (H2030, 0.3 μM) was “C (Percent Degradation: C ≤ 35)”. For the setting “H2030, 1 μM”, the “Percent Degradation at Indicated Concentration (μM)” value is “C (Percent Degradation: C ≤ 35)”. Further, the “Percent Degradation at Indicated Concentration (μM)” value (H2030, 3 μM) is given as “C (Percent Degradation: C ≤ 35)”.
As to `CCC(=O)N1CCN(c2nc(NCCC(=O)N(C)CCOCCOc3cc(-c4scnc4C)ccc3CNC(=O)[C@@H]3C[C@@H](O)CN3C(=O)[C@@H](c3cc(C)no3)C(C)C)nc3c(F)c(-c4cc(O)cc5ccccc45)c(Cl)cc23)CC1` [compound 330, (2S,4R)-N-(2-(2-(2-(3-((6-chloro-8-fluoro-7-(3-hydroxynaphthalen-1-yl)-4-(4-propionylpiperazin-1-yl)quinazolin-2-yl)amino)-N-methylpropanamido)ethoxy)ethoxy)-4-(4-methylthiazol-5-yl)benzyl)-4-hydroxy-1-((R)-3-methyl-2-(3-methylisoxazol-5-yl)butanoyl)pyrrolidine-2-carboxamide], under “H2030 cells, 0.3 μM”, the “Percent Degradation … 0.3” value was “C (C ≤ 35)”. The “Percent Degradation … 1” value (H2030 cells, 1 μM) was “C (C ≤ 35)”. In addition, the “Percent Degradation … (μM): 3” value (H2030 cells, 3 μM) is “C (C ≤ 35)”. In addition, the Dmax (H2030 cells) is no more than 35%.
Turning to `COc1cc(-c2scnc2C)ccc1[C@H](C)NC(=O)[C@@H]1C[C@@H](O)CN1C(=O)[C@@H](c1cc(OCCOCCOCCOCCOCCN(C)C(=O)CCNc2nc(N3CCN(C(C)=O)CC3)c3cc(Cl)c(-c4cc(O)cc5ccccc45)c(F)c3n2)no1)C(C)C` [compound 391, (2S,4R)-1-((2R)-2-(3-((18-((4-(4-acetylpiperazin-1-yl)-6-chloro-8-fluoro-7-(3-hydroxynaphthalen-1-yl)quinazolin-2-yl)amino)-15-methyl-16-oxo-3,6,9,12-tetraoxa-15-azaoctadecyl)oxy)isoxazol-5-yl)-3-methylbutanoyl)-4-hydroxy-N-((S)-1-(2-methoxy-4-(4-methylthiazol-5-yl)phenyl)ethyl)pyrrolidine-2-carboxamide], the Dmax was no more than 35%. Also, under “H2030, 0.3 μM”, the “Percent Degradation at Indicated Concentration (μM)” value is on record as “C (Percent Degradation: C ≤ 35)”. The “Percent Degradation at Indicated Concentration (μM)” value (H2030, 1 μM) is on record as “C (Percent Degradation: C ≤ 35)”. Besides, under “H2030, 3 μM”, the “Percent Degradation at Indicated Concentration (μM)” value was “C (Percent Degradation: C ≤ 35)”.
Consider `C=CC(=O)N1CCN(c2nc(O[C@H](C)CN3CCC(OCCOCCOCCOc4ccc5c(c4)CN(C4CCC(=O)NC4=O)C5=O)CC3)nc3c2CCN(c2cc(O)cc4ccccc24)C3)CC1` (stereo partly drawn) [compound 423, 3-(5-(2-(2-(2-((1-((R)-2-((4-(4-acryloylpiperazin-1-yl)-7-(3-hydroxynaphthalen-1-yl)-5,6,7,8-tetrahydropyrido[3,4-d]pyrimidin-2-yl)oxy)propyl)piperidin-4-yl)oxy)ethoxy)ethoxy)ethoxy)-1-oxoisoindolin-2-yl)piperidine-2,6-dione], for which the “Percent Degradation at Indicated Concentration (μM)” value (H2030 cells, 0.3 μM) is on record as “C (Percent Degradation: C ≤ 35)”; the “Percent Degradation at Indicated Concentration (μM)” value (H2030 cells, 1 μM) is listed as “C (Percent Degradation: C ≤ 35)”; the “Percent Degradation at Indicated Concentration (μM)” value (H2030 cells, 3 μM) was “C (Percent Degradation: C ≤ 35)”.
For `Cc1ncsc1-c1ccc([C@H](C)NC(=O)[C@@H]2C[C@@H](O)CN2C(=O)[C@@H](NC(=O)COCCOCCN(C)C(=O)CCNc2nc(N3CCN(C(N)=O)CC3)c3cc(Cl)c(-c4cc(O)cc5ccccc45)c(F)c3n2)C(C)(C)C)cc1` [compound 182, 4-(6-chloro-8-fluoro-2-(((S)-14-((2S,4R)-4-hydroxy-2-(((S)-1-(4-(4-methylthiazol-5-yl)phenyl)ethyl)carbamoyl)pyrrolidine-1-carbonyl)-4,15,15-trimethyl-3,12-dioxo-7,10-dioxa-4,13-diazahexadecyl)amino)-7-(3-hydroxynaphthalen-1-yl)quinazolin-4-yl)piperazine-1-carboxamide], the Dmax is no more than 35%. Further, the “Percent Degradation at Indicated Concentration (μM)” value (H2030, 0.3 μM) is “C (Percent Degradation: C ≤ 35)”. Besides, the “Percent Degradation at Indicated Concentration (μM)” value (H2030, 1 μM) is “C (Percent Degradation: C ≤ 35)”. In addition, the “Percent Degradation at Indicated Concentration (μM)” value (H2030, 3 μM) is “C (Percent Degradation: C ≤ 35)”.
